# Biological target: T1, long chromatin fibers (chicken histone octamer on 177 bp x 36 array of 601 DNA) (Gallus gallus, UniProt P02263+P0C1H3+P62801+P84229)
# T1 construct: gene H3-I
# Details: labelled compound; 0.5 and 1 uM; on ice; with or without 4.5 mM MgCl2; histone-DNA complex, site on histone versus DNA not resolved
structure (smiles),measurement,value
"CC1=CC(C)=[N+]2C1=C(CC[C@@H](C)[C@H]1CC[C@H]3[C@@H]4CC=C5C[C@@H](O)CC[C@]5(C)[C@H]4CC[C@]13C)c1c(C)cc(C)n1[B-]2(F)F [TopFluor cholesterol, 23-(dipyrrometheneborondifluoride)-24-norcholesterol]","fluorescence co-migration in native agarose gel (EMSA), pelleting assay",cholesterol bound avidly to open or compacted chromatin fibers

# Reference: article PMC5408612, “Biophysical studies of cholesterol effects on chromatin” (Journal of Lipid Research, 2017)
